Data on 12 molecules can be found in patent publication US11535599B2, “Benzisoxazole derivative” (Sumitomo Pharma Co., Ltd., priority 2020, dated 2022).

pIC50: −log10 of the molar value. Like-named read-outs stand apart in the source and are kept apart here. A value given as a limit tells only on which side of the number the result lay.

The target of one test is human Cav3.3 (Homo sapiens (Human), UniProt Q9P0X4). Kind of test: T-type calcium channel inhibitory activity, whole-cell patch-clamp with HEK293 cell. The test is classed as cell-based. As to conditions: for inhibition at 600 µM: HEK293, 600 μmol/L, read-out: Cav3.3 % inhibitory rate; for pIC50: dose-reactive test, read-out: Cav3.3 IC50 (parenthesized). The method, then: (§1) The inhibitory activity of the present compounds for T-type calcium channel was measured by whole-cell patch-clamp method with HEK293 cell (vendor of HEK 293 cell: ATCC, Manassas, Va., USA, builder of expressing cell: ChanTest Corporation., Cleveland, Ohio, USA), in which human Cav3.1, human Cav3.2, or human Cav3.3 is expressed. The culture medium used for HEK293 cell was prepared by adding fetal bovine serum (10%), sodium penicillin G (100 U/mL), streptomycin sulfate (100 μg/mL), and G418 (500 μg/mL) to a mixture medium of Dulbecco's modified Eagle's medium/Ham's F-12 medium. The whole-cell current was evaluated with IonWorks Barracuda system and Population Patch Clamp (both are provided by Molecular Device Corporation, Union City, Calif., USA). The extracellular recording solution used during the recording was Hanks' balanced salt solution. The internal recording solution used herein was 50 mmol/L CsCl, 90 mmol/L CsF, 5 mmol/L MgCl2, 1 mmol/L glycol ether diamine tetraacetic acid (EGTA), and 10 mmol/L 4-(2-hydroxyethyl)piperazine-1-ethanesulfonic acid (HEPES (pH 7.2). The holding voltage was held at −90 mV, then changed to −65 mV. 60 seconds later, −20 mV pulse was added thereto for 200 millisecond to activate the channel on plasma membrane and generate calcium current. The calcium current was recorded with an amplifier of IonWorks Barracuda system, and analyzed with a program of the system (Version 2.0.2). The record of the calcium current was obtained twice, before and after the addition of the compound. In the measurement after adding the compound, the cells were exposed to the recording solution containing the compound for more than 5 minutes and then the current was measured. In the analyses, the ratio of current readout after the compound addition per current readout before the compound addition was calculated, the calculated value was subtracted from one, and the obtained value was converted to percentage. […] The value obtained from each compound was canonicalized based on the two ends of values to obtain each inhibitory rate. The positive control compound used herein was TTA-A2 which is known as T-type calcium channel inhibitor. IC50 value was calculated with Hill equation.
Sequence of human Cav3.3 (Q9P0X4 whole entry): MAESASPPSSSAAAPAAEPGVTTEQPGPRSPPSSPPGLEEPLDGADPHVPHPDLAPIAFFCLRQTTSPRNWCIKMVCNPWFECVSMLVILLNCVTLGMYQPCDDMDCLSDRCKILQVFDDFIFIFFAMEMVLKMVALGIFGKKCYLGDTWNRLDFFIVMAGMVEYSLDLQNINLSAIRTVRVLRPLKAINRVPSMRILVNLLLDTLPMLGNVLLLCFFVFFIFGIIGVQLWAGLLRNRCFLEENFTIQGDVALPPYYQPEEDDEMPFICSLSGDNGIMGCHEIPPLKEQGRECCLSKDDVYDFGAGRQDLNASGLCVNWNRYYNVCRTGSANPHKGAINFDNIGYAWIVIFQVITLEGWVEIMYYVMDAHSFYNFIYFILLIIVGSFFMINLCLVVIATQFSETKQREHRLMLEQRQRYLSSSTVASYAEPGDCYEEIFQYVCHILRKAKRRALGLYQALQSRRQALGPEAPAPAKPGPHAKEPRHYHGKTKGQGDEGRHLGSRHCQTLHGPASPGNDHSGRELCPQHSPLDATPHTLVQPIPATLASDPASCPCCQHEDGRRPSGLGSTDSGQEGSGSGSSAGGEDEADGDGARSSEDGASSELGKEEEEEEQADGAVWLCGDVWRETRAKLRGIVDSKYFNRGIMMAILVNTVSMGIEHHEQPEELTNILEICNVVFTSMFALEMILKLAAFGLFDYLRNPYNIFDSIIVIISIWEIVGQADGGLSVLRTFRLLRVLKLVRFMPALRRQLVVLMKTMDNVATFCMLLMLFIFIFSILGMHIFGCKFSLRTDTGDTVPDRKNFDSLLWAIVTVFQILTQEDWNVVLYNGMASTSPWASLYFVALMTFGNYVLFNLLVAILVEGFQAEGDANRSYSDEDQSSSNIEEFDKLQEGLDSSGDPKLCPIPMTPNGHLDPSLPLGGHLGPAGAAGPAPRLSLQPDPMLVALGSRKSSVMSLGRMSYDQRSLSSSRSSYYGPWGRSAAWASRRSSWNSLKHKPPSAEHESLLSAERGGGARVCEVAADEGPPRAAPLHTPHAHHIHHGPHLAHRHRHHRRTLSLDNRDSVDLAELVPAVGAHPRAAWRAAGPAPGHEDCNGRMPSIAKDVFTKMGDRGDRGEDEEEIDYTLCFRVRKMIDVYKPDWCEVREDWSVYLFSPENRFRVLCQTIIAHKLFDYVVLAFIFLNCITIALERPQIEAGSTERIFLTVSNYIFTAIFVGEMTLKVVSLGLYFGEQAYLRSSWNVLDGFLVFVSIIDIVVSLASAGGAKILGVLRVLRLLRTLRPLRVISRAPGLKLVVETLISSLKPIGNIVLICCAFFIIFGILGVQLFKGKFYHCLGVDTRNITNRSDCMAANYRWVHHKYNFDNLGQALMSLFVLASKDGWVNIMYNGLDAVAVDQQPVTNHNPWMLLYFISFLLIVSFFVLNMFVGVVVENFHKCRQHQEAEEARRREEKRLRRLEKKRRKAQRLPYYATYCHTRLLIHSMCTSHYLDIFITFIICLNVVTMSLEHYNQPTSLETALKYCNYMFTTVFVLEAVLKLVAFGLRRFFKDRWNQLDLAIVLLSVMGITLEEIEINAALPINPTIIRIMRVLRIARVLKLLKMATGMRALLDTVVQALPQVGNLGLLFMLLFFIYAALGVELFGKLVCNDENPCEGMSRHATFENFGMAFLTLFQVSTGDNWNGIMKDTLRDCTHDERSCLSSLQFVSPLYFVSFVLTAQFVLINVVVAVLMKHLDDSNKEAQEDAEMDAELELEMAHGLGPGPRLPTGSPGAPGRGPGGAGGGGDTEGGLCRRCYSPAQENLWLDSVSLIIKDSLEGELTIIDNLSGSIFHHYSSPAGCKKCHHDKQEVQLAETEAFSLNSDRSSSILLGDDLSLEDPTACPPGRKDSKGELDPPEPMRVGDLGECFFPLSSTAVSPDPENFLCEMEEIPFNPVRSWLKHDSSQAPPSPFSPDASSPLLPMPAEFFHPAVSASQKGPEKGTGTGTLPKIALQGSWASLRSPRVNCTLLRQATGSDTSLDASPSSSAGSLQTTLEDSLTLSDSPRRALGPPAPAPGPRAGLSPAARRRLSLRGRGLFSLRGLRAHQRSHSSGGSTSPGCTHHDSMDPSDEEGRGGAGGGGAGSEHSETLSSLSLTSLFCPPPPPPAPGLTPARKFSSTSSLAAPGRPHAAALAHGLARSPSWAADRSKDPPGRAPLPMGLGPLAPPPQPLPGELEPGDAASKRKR
(§2) Each inhibitory rate (%) against T-type calcium channel at the evaluation concentration of the present compound (600 μmol/L) is shown in Table 12, in which the parenthesized values are IC50 values (μmol/L)) calculated from the dose-reactive test.
Background: Patch clamp records ionic current or voltage across a cell membrane.

The target in a further test is human Cav3.2 (Homo sapiens (Human), UniProt O95180). Described as above. The test is classed as cell-based. The following applies: for inhibition at 600 µM: HEK293, 600 μmol/L, read-out: Cav3.2 % inhibitory rate; for pIC50: dose-reactive test, read-out: Cav3.2 IC50 (parenthesized). As for the experimental part:
as §1, §2

A further test concerns the target human Cav3.1 (Homo sapiens (Human), UniProt O43497). The description is as above. The test is classed as cell-based. As to conditions: for inhibition at 600 µM: HEK293, 600 μmol/L, read-out: Cav3.1 % inhibitory rate; for pIC50: dose-reactive test, read-out: Cav3.1 IC50 (parenthesized). The method, then:
as §1, §2

The test system of test [1] is reserpine-induced Parkinson's disease model mouse. Kind of test: Potentiating effect of levodopa-induced hyperactivity in reserpine-induced Parkinson's disease model mouse. The test is classed as in vivo. As to conditions: Examples 12.5 or 25 mg/kg oral; rasagiline 3 or 10 mg/kg; with levodopa 200 mg/kg i.p. The method, then:
Dopamine-depleted mice due to reserpine treatment are model mice of akinesia symptoms in Parkinson's disease, said symptoms are relieved with levodopa (L-DOPA). The effect of the present compounds for potentiating the levodopa's effect was tested.
In the present test, male Crl: CD1 (ICR) mice (CHARLES RIVER LABORATORIES JAPAN, INC.) were used. 20-24 hours before starting the movement measurement, reserpine (3 mg/kg) was intraperitoneally administered to the mouse. One hour before starting the movement measurement, the present compound (12-.5 mg/kg or 25 mg/kg of. Examples 1, 2, 3, 4, and 5) was orally administered to the mouse. Shortly before starting the movement measurement, levodopa (200 mg/kg) with benserazide whose amount was ¼ of levodopa in free form was intraperitoneally administered to the mouse. The movement measurement was carried out for 90 minutes, and each total movement was compared.

The target of the next test is human CA-II (Homo sapiens (Human), UniProt P00918). Kind of test: Activity for inhibiting carbonic anhydrase (CA). As to conditions: 4-nitrophenyl acetate substrate. The test is classed as biochemical. As for the experimental part:
CA is a zinc metalloenzyme family which catalyzes reversible hydration between carbon dioxide, and bicarbonate and proton.
As a substance for decomposition by CA-II, 4-nitrophenyl acetate was used herein. 4-Nitrophenyl acetate is […] with CA-II to produce 4-nitrophenol. […] To the diluted solution were added […] (final concentration: 5 mmol/L) and the present compound of each concentration, and the mixture was incubated at 37° C. under shading for 30 minutes. […] The IC50 of the compound was obtained through the two-parameter logistic model with the inhibitory rate data in each concentration which was obtained from plural trials.

Another test has as its target Rat striatum MAOB (Rattus norvegicus (Rat), UniProt P19643). Kind of test: Activity for inhibiting monoamine oxidase B (MAOB). Format: biochemical. As for the experimental part: MAOB is an enzyme involved in oxidative de-amino acid reaction of an endogenous monoamine neurotransmitter such as dopamine. […] The effect of the present compounds for inhibiting MAOB in rat striatum and simian striatum was tested.
Mitochondria⋅synaptosome fraction containing MAOB was prepared according to the following procedure. To striata of male Slc: Wistar rat (Japan SLC, Inc.) or male cynomolgus monkey (HAMRI CO., LTD.) was added 0.32 mol/L aqueous sucrose by 10 mL per 1 gram as wet weight of the tissue, and the mixture was homogenized. The homogenate was centrifuged at 4° C. at 1,000 g for 10 minutes, and the obtained supernatant was centrifuged again at 4° C. at 17,200 g for 20 minutes. To the obtained precipitate was added a prepared buffer solution (10 mmol/L Tris-HCl buffer solution (pH 7.4), 0.25 mol/L aqueous sucrose, 0.5 mmol/L EDTA-2K) by 10 mL per 1 gram as wet weight of the original tissue, and the mixture was centrifuged again at 4° C. at 17,200 g for 20 minutes. To the obtained precipitate was added the prepared buffer solution by 40 mL per 1 gram as wet weight of the original tissue. The mixture was suspended to be used as an enzyme homogenate solution.
As a substance to be degraded by MAOB, ^14C-labeled β-phenylethylamine ([^14C] β-PEA) was used. [^14C] β-PEA and the present compound solution diluted to each concentration were incubated with the enzyme homogenate solution at 37° C. for a given period, and then the reaction was stopped by adding 3 mol/L cold HCl thereto. The reaction product was extracted with a mixture of water-saturated toluene and ethyl acetate (1:1). The supernatant organic layer was separated, a liquid scintillation cocktail (ACSII, GE Healthcare) was added to the separated organic layer, and the radioactivity was measured with a liquid scintillation counter (TRI-CARB 3100TR, Packard). The IC50 value of each compound was determined based on two parameter logistic model with the inhibitory data of each concentration, said data were obtained from plural trials.

Test [2] relates to unilateral lesion model of nigrostriatal dopamine neuron induced with 6-OHDA. Kind of test: Extending duration of levodopa-induced rotational behavior in 6-OHDA unilateral lesion model. Format: in vivo, rat. As to conditions: Examples 10 or 30 mg/kg oral; rasagiline 0.6 mg/kg; with levodopa 5 mg/kg i.p.
Setting [3] is: [14C] β-PEA substrate, read-out: Rat striatum MAOB IC50.

Sequence of human Cav3.2 (O95180 whole entry): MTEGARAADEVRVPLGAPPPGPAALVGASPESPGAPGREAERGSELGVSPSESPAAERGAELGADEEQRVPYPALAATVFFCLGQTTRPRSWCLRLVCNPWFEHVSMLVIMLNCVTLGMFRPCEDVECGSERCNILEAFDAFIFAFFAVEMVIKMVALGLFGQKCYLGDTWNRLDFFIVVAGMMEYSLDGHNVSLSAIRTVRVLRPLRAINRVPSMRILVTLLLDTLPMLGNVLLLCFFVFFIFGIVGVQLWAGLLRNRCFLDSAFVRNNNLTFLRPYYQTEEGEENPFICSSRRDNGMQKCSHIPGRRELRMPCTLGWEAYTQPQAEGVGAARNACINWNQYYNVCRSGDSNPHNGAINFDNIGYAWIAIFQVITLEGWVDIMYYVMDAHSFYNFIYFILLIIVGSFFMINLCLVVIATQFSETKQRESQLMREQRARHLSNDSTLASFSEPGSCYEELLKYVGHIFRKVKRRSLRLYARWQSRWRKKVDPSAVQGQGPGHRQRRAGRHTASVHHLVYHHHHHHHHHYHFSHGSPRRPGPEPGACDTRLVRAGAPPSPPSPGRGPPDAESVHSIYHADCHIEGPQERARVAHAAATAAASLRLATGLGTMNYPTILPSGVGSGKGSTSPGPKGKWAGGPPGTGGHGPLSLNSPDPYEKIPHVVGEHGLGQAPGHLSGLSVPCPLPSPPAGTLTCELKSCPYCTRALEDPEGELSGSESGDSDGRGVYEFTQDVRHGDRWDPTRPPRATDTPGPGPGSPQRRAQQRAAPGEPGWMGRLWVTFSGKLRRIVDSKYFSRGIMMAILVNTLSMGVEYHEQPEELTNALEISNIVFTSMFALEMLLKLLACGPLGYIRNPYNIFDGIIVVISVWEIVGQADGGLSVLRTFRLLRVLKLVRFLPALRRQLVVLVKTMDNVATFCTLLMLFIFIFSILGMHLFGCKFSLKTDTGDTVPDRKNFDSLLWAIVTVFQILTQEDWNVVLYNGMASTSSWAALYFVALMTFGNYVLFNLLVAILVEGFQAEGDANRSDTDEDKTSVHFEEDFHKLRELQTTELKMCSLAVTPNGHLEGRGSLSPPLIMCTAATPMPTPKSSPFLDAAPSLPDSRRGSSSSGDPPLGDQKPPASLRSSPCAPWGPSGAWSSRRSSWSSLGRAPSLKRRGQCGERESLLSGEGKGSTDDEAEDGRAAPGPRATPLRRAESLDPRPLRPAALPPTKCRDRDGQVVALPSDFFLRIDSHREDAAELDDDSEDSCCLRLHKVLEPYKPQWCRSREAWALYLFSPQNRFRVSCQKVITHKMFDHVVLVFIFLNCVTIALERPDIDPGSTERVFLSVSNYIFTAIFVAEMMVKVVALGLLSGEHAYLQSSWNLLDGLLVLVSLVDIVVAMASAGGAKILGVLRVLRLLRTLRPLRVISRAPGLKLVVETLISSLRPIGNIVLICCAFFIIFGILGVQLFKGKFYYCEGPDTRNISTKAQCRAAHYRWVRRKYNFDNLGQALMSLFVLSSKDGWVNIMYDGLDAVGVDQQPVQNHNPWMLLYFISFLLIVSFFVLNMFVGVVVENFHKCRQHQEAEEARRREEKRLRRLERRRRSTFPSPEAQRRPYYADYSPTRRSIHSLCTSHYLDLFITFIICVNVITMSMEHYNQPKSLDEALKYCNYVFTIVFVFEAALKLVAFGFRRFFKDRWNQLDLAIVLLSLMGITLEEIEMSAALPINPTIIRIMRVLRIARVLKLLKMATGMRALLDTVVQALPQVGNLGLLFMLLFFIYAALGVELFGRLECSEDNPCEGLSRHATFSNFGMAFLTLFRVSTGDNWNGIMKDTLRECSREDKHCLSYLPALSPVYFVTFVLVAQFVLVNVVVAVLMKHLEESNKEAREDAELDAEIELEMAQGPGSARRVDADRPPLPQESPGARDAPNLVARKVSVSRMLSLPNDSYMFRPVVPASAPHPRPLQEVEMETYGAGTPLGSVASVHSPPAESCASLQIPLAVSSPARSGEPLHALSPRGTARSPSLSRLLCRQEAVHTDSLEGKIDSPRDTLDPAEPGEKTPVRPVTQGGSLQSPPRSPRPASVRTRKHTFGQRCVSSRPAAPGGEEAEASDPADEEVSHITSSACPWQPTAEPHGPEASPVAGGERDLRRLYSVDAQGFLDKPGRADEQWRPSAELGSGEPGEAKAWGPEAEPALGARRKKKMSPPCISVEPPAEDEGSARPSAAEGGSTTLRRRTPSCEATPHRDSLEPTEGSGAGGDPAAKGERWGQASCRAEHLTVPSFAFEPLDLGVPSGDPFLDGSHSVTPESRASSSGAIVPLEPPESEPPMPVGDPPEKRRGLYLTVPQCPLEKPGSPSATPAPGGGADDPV
Sequence of Rat striatum MAOB (P19643 whole entry): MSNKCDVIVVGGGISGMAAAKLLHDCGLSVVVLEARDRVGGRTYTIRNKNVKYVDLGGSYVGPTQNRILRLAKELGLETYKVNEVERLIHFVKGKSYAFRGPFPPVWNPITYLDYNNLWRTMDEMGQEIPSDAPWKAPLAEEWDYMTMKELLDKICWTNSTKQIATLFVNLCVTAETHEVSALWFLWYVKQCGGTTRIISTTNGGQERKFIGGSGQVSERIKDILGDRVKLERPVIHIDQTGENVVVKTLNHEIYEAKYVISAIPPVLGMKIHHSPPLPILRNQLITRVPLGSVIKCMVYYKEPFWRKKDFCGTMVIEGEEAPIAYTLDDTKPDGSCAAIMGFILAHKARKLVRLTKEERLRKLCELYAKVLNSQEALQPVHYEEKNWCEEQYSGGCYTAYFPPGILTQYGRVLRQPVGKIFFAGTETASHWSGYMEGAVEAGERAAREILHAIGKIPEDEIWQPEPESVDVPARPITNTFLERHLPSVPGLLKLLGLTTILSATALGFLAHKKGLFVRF

With `CC(C)(c1noc2ccccc12)S(N)(=O)=O` [Example 2, 2-(1,2-benzoxazol-3-yl)propane-2-sulfonamide], the inhibition at 600 µM on human Cav3.3 is 70%; at human Cav3.2, 64%; on human Cav3.1, 72.7%. In addition, the “levodopa-induced hyperactivity (total movement, 90 minutes)” value (“levodopa-induced hyperactivity” below) in test [1] is recorded as “significantly-potentiating effect of levodopa-induced hyperactivity”. Also, the pIC50 against human CA-II was 4.10; at Rat striatum MAOB (setting [3]) it was below 3.22. For the same molecule, the “rotational number in the late phase (100-120 minutes)” value (from here on “rotational number in the late phase”) in test [2] is recorded as “significantly increased the rotational number in the late phase”.

Consider `NS(=O)(=O)C(F)c1noc2ccccc12` (stereo not shown) [Example 3, 1-(1,2-benzoxazol-3-yl)-1-fluoromethane-sulfonamide], for which the figures for the inhibition at 600 µM on human Cav3.3, at human Cav3.2 and on human Cav3.1 were 61%, 64% and 69.9%, respectively. In addition, the pIC50 is 3.36 on human Cav3.3; 3.44 on human Cav3.2; 3.49 at human Cav3.1; 7.08 at human CA-II; 4.00 on Rat striatum MAOB (setting [3]). Also, the “levodopa-induced hyperactivity” value in test [1] is given as “significantly-potentiating effect of levodopa-induced hyperactivity”. For the same molecule, the “rotational number in the late phase” value in test [2] is recorded as “did not show statistically-significant increase, but showed a tendency to increase the rotational number in the late phase”.

Regarding `NS(=O)(=O)C(F)(F)c1noc2ccccc12` [Example 4, 1-(1,2-benzoxazol-3-yl)-1,1-difluoromethane-sulfonamide], in test [1], the “levodopa-induced hyperactivity” value was “significantly-potentiating effect of levodopa-induced hyperactivity”. Besides, the values for the pIC50 against human CA-II and at Rat striatum MAOB (setting [3]) were 7.64 and 3.41, respectively.

Regarding `NS(=O)(=O)C1(c2noc3ccccc23)CC1` [Example 5, 1-(1,2-benzoxazol-3-yl)cyclopropane-1-sulfonamide], the inhibition at 600 µM on human Cav3.3 stood at 55.6%; on human Cav3.2 it was 54%; on human Cav3.1, 64.5%. In addition, the “levodopa-induced hyperactivity” value in test [1] is “significantly-potentiating effect of levodopa-induced hyperactivity”. Also, the pIC50 was 5.28 on human CA-II and below 3.22 on Rat striatum MAOB (setting [3]). Besides, in test [2], the “rotational number in the late phase” value is given as “did not show statistically-significant increase, but showed a tendency to increase the rotational number in the late phase”.

With `CCC(c1noc2ccccc12)S(N)(=O)=O` (stereo not shown) [Example 6, 1-(1,2-benzoxazol-3-yl)propane-1-sulfonamide], the inhibition at 600 µM at human Cav3.3 was found to be 72.9%; at human Cav3.2, 67.4%; on human Cav3.1, 80.4%. Also, the pIC50 is 4.34 at human CA-II and below 3.22 on Rat striatum MAOB (setting [3]).

Consider `CCCC(c1noc2ccccc12)S(N)(=O)=O` (stereo not shown) [Example 7, 1-(1,2-benzoxazol-3-yl)butane-1-sulfonamide], for which the pIC50 is 4.48 on human CA-II and below 3.22 on Rat striatum MAOB (setting [3]).

`CC(F)(c1noc2ccccc12)S(N)(=O)=O` (stereo not shown) [Example 8, 1-(1,2-benzoxazol-3-yl)-1-fluoroethane-1-sulfonamide]: the figures for the inhibition at 600 µM on human Cav3.3, at human Cav3.2 and on human Cav3.1 were 73%, 70.3% and 83.1%, respectively. Moreover, the pIC50 is 3.49 at human Cav3.3; 3.50 on human Cav3.2; 3.67 at human Cav3.1; 5.66 against human CA-II; below 3.22 on Rat striatum MAOB (setting [3]). For the same molecule, the “rotational number in the late phase” value in test [2] is recorded as “did not show statistically-significant increase, but showed a tendency to increase the rotational number in the late phase”.

For the molecule `CC(C)C(c1noc2ccccc12)S(N)(=O)=O` (stereo not shown) [Example 9, 1-(1,2-benzoxazol-3-yl)-2-methylpropane-1-sulfonamide], the inhibition at 600 µM at human Cav3.3 came to 94.3%; at human Cav3.2, 96.9%; at human Cav3.1 it was 96.5%.

Take `COc1ccc2onc(C(C)S(N)(=O)=O)c2c1` (stereo not shown) [Example 10, 1-(5-methoxy-1,2-benzoxazol-3-yl)ethane-1-sulfonamide]: the inhibition at 600 µM on human Cav3.3 came to 69.7%; on human Cav3.2, 57.7%; on human Cav3.1, 68.5%. The pIC50 at Rat striatum MAOB (setting [3]) is below 3.22.

For the molecule `CC(c1noc2ccc(F)cc12)S(N)(=O)=O` (stereo not shown) [Example 11, 1-(5-fluoro-1,2-benzoxazol-3-yl)ethane-1-sulfonamide], the results for the inhibition at 600 µM at human Cav3.3, at human Cav3.2 and at human Cav3.1 were 54.3%, 50.8% and 56%, respectively. For the same molecule, the pIC50 on Rat striatum MAOB (setting [3]) is below 3.22.

Consider `CC(c1noc2ccc(Cl)cc12)S(N)(=O)=O` (stereo not shown) [Example 12, 1-(5-chloro-1,2-benzoxazol-3-yl)ethane-1-sulfonamide], for which the figures for the inhibition at 600 µM on human Cav3.3, on human Cav3.2 and on human Cav3.1 were 93%, 91.5% and 95%, respectively. Besides, at Rat striatum MAOB (setting [3]), the pIC50 was 3.82.

`C[C@H](NCc1ccc(OCc2cccc(F)c2)cc1)C(N)=O` [safinamide, reference compound] gave a negative-log IC50 (pIC50) at Rat striatum MAOB (Rat striatum MAOB IC50, [14C] β-PEA substrate) of 6.71. The MAOB inhibitory action result on Rat striatum MAOB (rat striatum, in words) is on record as “strong MAOB inhibitory action”. Besides, the “rotational number in the late phase” value in test [2] was “did not show statistically-significant increase, but showed a tendency to increase the rotational number in the late phase”.

The pIC50 is −log10 of the IC50, conventionally taken in molar units.
